Measurements taken from patent US10519152B2, “Compounds and their use in treating cancer” (AstraZeneca AB, priority 2017, dated 2019).

Key:
[1] = molecular target: T1, Estrogen Receptor (ERα) in MCF-7 human ductal carcinoma breast cell line (Homo sapiens, UniProt P03372); assay: MCF-7 ER degradation assay (cell based immuno-fluorescence); conditions: MCF-7 cells; for ER degradation ≥ 90% at 0.3 μM: ER degradation by fulvestrant at 0.3 μM is defined as 100%; for DC50: 18-22 hours incubation, 50% reduction of ERα expression, single experiment or average of two or more, read-out: MCF-7 ER degradation IC50
T1 construct: endogenous in cells; host or cells: MCF-7
T1 sequence (P03372 1-595): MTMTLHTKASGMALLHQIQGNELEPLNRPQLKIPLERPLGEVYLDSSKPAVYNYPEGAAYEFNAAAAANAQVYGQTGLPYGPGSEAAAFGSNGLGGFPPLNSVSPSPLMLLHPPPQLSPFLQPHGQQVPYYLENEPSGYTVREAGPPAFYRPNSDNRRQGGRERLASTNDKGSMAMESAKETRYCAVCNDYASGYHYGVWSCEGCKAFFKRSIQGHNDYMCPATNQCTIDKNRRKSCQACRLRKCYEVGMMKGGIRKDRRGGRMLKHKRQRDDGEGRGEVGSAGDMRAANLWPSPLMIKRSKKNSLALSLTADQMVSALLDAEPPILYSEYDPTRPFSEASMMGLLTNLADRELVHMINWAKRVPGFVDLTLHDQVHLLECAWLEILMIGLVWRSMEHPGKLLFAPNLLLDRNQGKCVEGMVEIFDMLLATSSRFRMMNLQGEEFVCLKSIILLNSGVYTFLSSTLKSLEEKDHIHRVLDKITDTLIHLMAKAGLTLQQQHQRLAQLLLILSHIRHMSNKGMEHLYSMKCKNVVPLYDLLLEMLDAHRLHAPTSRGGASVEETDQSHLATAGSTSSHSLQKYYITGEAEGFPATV
How it was run: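 MCF-7 human ductal carcinoma breast cells were seeded at 3.75×10^4 cells per mL (40 μL per well) in 384 well plates with phenol red free DMEM containing 2 mM L-Glutamine and 5% (v/v) Charcoal/Dextran treated foetal calf serum. After overnight culture, compounds were acoustically dispensed, incubated 18-22 hours, then cells were formaldehyde-fixed and immunostained for ERα.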

[2] = molecular target: T2, recombinant human Estrogen Receptor alpha ligand binding domain, residues 307-554 (ER alpha-LBD (GST)) (Homo sapiens, UniProt P03372); assay: ERα binding assay (LanthaScreen TR-FRET competition); conditions: TR-FRET competition with Fluormone ES2 tracer, 4 hours at room temperature; single experiment or average of two or more
T2 construct: made in house
T2 sequence (P03372 307-554): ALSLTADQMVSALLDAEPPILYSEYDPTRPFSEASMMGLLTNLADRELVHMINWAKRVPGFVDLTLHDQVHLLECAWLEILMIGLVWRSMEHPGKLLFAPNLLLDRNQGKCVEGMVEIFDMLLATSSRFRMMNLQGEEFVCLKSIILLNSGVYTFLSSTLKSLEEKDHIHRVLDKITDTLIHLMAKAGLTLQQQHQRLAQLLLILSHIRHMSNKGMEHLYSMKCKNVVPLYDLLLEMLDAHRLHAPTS
Experimental: The ability of compounds to bind to isolated Estrogen Receptor Alpha Ligand binding domain (ER alpha-LBD (GST)) was assessed in competition assays using a LanthaScreen™ Time-Resolved Fluorescence Resonance Energy Transfer (TR-FRET) detection end-point. For the LanthaScreen TR-FRET endpoint, a suitable fluorophore (Fluormone ES2, ThermoFisher, Product code P2645) and recombinant human Estrogen Receptor alpha ligand binding domain, residues 307-554 (expressed and purified in-house) were used to measure compound binding. The assay principle is that ER alpha-LBD (GST) is added to a fluorescent ligand to form a receptor/fluorophore complex. A terbium-labelled anti-GST antibody (Product code PV3551) is used to indirectly label the receptor by binding to its GST tag, and competitive binding is detected by a test compound's ability to displace the fluorescent ligand, resulting in a loss of TR-FRET signal between the Tb-anti-GST antibody and the tracer. The assay was performed as follows with all reagent additions carried out using the Beckman Coulter BioRAPTR FRD microfluidic workstation: • 1. Acoustic dispense 120 nL of the test compound into a black low volume 384 well assay plates. • 2. Prepare 1×ER alpha-LBD/Tb-antiGST Ab in ES2 screening buffer and incubate for 15 minutes. • 3. Dispense 6 μL of the […] reagent into each well of the assay plate followed by 6 μL of Fluorophore reagent into each well of the assay plate • 4. Cover the assay plate to protect the reagents from light and evaporation, and incubate at room temperature for 4 hours. • 5. Excite at 337 nm and measure the fluorescent emission signal of each well at 490 nm and 520 nm using the BMG PheraSTAR.
Compounds were dosed directly from a compound source microplate containing serially diluted compound (4 wells containing 10 mM, […] and 10 nM final compound respectively) to an assay microplate using the Labcyte Echo 550. The Echo 550 is a liquid handler that uses acoustic technology to perform direct microplate-to-microplate transfers of DMSO compound solutions and the system can be programmed to transfer multiple small nL volumes of compound from the different source plate wells to give the desired serial dilution of compound in the assay which is then back-filled to normalise the DMSO concentration across the dilution range.
In total 120 nL of compound plus DMSO were added to each well and compounds were tested in a 12-point concentration response format over a final compound concentration range of 10, 2.917, 1.042, 0.2083, 0.1, 0.0292, 0.0104, 0.002083, 0.001, 0.0002917, 0.0001042, and 0.00001 μM respectively. TR-FRET dose response data obtained with each compound was exported into a suitable software package (such as Origin or Genedata) to perform curve fitting analysis. Competitive ER alpha binding was expressed as an IC50 value. This was determined by calculation of the concentration of compound that was required to give a 50% reduction in tracer compound binding to ER alpha-LBD.

In the case of `Cc1ncsc1-c1ccc(CNC(=O)[C@@H]2C[C@@H](O)CN2C(=O)[C@@H](NC(=O)COCCOCCOCCOc2cc(F)c([C@@H]3c4[nH]c5ccccc5c4C[C@@H](C)N3CC(C)(C)F)c(F)c2)C(C)(C)C)cc1` [Example 38, (2S,4R)-1-((S)-2-(tert-Butyl)-14-(3,5-difluoro-4-((1R,3R)-2-(2-fluoro-2-methylpropyl)-3-methyl-2,3,4,9-tetrahydro-1H-pyrido[3,4-b]indol-1-yl)phenoxy)-4-oxo-6,9,12-trioxa-3-azatetradecanoyl)-4-hydroxy-N-(4-(4-methylthiazol-5-yl)benzyl)pyrrolidine-2-carboxamide], the “ER degradation ≥ 90% at 0.3 μM” value [1] is reported as “••” and the IC50 [2] is reported as 0.7 nM.
In the case of `Cc1ncsc1-c1ccc(CNC(=O)[C@@H]2C[C@@H](O)CN2C(=O)[C@@H](NC(=O)COCCOCCOc2cc(F)c([C@@H]3c4[nH]c5ccccc5c4C[C@@H](C)N3CC(C)(C)F)c(F)c2)C(C)(C)C)cc1` [Example 39, (2S,4R)-1-((S)-2-(2-(2-(2-(3,5-difluoro-4-((R,3R)-2-(2-fluoro-2-methylpropyl)-3-methyl-2,3,4,9-tetrahydro-1H-pyrido[3,4-b]indol-1-yl)phenoxy)ethoxy)ethoxy)acetamido)-3,3-dimethylbutanoyl)-4-hydroxy-N-(4-(4-methylthiazol-5-yl)benzyl)pyrrolidine-2-carboxamide], the “ER degradation ≥ 90% at 0.3 μM” value [1] is reported as “•” and the IC50 [2] is reported as 0.7 nM.
In the case of `Cc1ncsc1-c1ccc(CNC(=O)[C@@H]2C[C@@H](O)CN2C(=O)[C@@H](NC(=O)COCCCOc2cc(F)c([C@@H]3c4[nH]c5ccccc5c4C[C@@H](C)N3CC(C)(C)F)c(F)c2)C(C)(C)C)cc1` [Example 41, (2S,4R)-1-((S)-2-(2-(3-(3,5-difluoro-4-((1R,3R)-2-(2-fluoro-2-methylpropyl)-3-methyl-2,3,4,9-tetrahydro-1H-pyrido[3,4-b]indol-1-yl)phenoxy)propoxy)acetamido)-3,3-dimethylbutanoyl)-4-hydroxy-N-(4-(4-methylthiazol-5-yl)benzyl)pyrrolidine-2-carboxamide], the DC50 [1] is reported as 1.7 nM and the IC50 [2] is reported as 0.7 nM.
`Cc1ncsc1-c1ccc(CNC(=O)[C@@H]2C[C@@H](O)CN2C(=O)[C@@H](NC(=O)CN2CC3(CCN(CCOc4cc(F)c([C@@H]5c6[nH]c7ccccc7c6C[C@@H](C)N5CC(C)(C)F)c(F)c4)CC3)C2)C(C)(C)C)cc1` [Example 42, (2S,4R)-1-((S)-2-(2-(7-(2-(3,5-difluoro-4-((1R,3R)-2-(2-fluoro-2-methylpropyl)-3-methyl-2,3,4,9-tetrahydro-1H-pyrido[3,4-b]indol-1-yl)phenoxy)ethyl)-2,7-diazaspiro[3.5]nonan-2-yl)acetamido)-3,3-dimethylbutanoyl)-4-hydroxy-N-(4-(4-methylthiazol-5-yl)benzyl)pyrrolidine-2-carboxamide] gave a DC50 [1] of 1.9 nM and an IC50 [2] of 1.3 nM.
With `Cc1ncsc1-c1ccc(CNC(=O)[C@@H]2C[C@@H](O)CN2C(=O)[C@@H](NC(=O)CN2CCC3(CCN(CCOc4cc(F)c([C@@H]5c6[nH]c7ccccc7c6C[C@@H](C)N5CC(C)(C)F)c(F)c4)CC3)CC2)C(C)(C)C)cc1` [Example 43, (2S,4R)-1-((S)-2-(2-(9-(2-(3,5-difluoro-4-((R,3R)-2-(2-fluoro-2-methylpropyl)-3-methyl-2,3,4,9-tetrahydro-1H-pyrido[3,4-b]indol-1-yl)phenoxy)ethyl)-3,9-diazaspiro[5.5]undecan-3-yl)acetamido)-3,3-dimethylbutanoyl)-4-hydroxy-N-(4-(4-methylthiazol-5-yl)benzyl)pyrrolidine-2-carboxamide] the DC50 [1] was 4.8 nM and the IC50 [2] was 2.3 nM.
